Among the test systems are T-47D breast; UACC-257 melanoma; BT-549 breast; SN12C renal; HCT-15 colon; KM12 colon; SF-295 CNS; LOX IMVI melanoma.
Assay in all cases: inhibition of tumour cell growth, NCI panel, 48 h

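1) Cells in 96-well plates. 2) Compound, 48 h, 5 concentrations. 3) Linear interpolation between surrounding doses. 4) Unreached endpoint = highest concentration. Here, GI50 denotes the concentration required for 50% inhibition of growth. TGI: concentration producing complete growth inhibition.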 Where only a bound is given, the exact number is not on record here.

As for `Cn1cc(C2=C(c3cn(CCCCCO)c4ccccc34)C(=O)NC2=O)c2ccccc21`, the GI50 was 6.44 µM in the assay on T-47D breast; 9.48 µM with UACC-257 melanoma; 4 µM with BT-549 breast; 5.55 µM with SN12C renal; 2.57 µM in the assay with HCT-15 colon; 4.22 µM in the assay on KM12 colon. Moreover, the GI50 with SF-295 CNS was 4.5 µM; in the assay with LOX IMVI melanoma, 4.99 µM. Also, the TGI in the assay on T-47D breast was 16 µM; with UACC-257 melanoma it was more than 25 µM; in the assay with BT-549 breast, 10.9 µM; in the assay on SN12C renal it was 19.5 µM; in the assay on HCT-15 colon it was more than 25 µM; with KM12 colon, 16.1 µM. The figures for the TGI with SF-295 CNS and in the assay on LOX IMVI melanoma were 13.9 µM and more than 19.4 µM, respectively.

As for `C/C=C(\C)C(=O)O[C@H]1C=CC(=O)O[C@H]1COC(=O)[C@H](C)O`, the GI50 in the assay with T-47D breast was 3.81 µM; in the assay with UACC-257 melanoma, 14.7 µM; with BT-549 breast, 9.56 µM; with SN12C renal it was 12.9 µM; in the assay with HCT-15 colon, 3.74 µM; in the assay with KM12 colon it was 8.81 µM. Further, the GI50 in the assay on SF-295 CNS is 13.1 µM; in the assay on LOX IMVI melanoma it was 3.59 µM. Also, the TGI was 19.2 µM with T-47D breast; 30.8 µM in the assay with UACC-257 melanoma; 21.7 µM with BT-549 breast; 28.3 µM with SN12C renal; 16.2 µM in the assay on HCT-15 colon; 27 µM in the assay with KM12 colon. In addition, the TGI stood at 28.9 µM in the assay on SF-295 CNS and 14.8 µM in the assay on LOX IMVI melanoma.

Consider `[Cu+2].[NH-]C(CC(=O)O)C(=O)O.[NH-]C(CC(=O)O)C(=O)O` (centres undefined), for which the GI50 in the assay with T-47D breast, in the assay with UACC-257 melanoma, in the assay on BT-549 breast, in the assay on SN12C renal, in the assay with HCT-15 colon and in the assay on KM12 colon was more than 100 µM throughout. The GI50 in the assay with SF-295 CNS and with LOX IMVI melanoma was more than 100 µM in each case. Besides, the TGI in the assay on T-47D breast, with UACC-257 melanoma, with BT-549 breast, in the assay with SN12C renal, in the assay with HCT-15 colon and in the assay with KM12 colon was more than 100 µM in each case. Also, the TGI with SF-295 CNS and in the assay on LOX IMVI melanoma was more than 100 µM throughout.

Regarding `O=[N+]([O-])c1oc2ccc3ccccc3c2c1CCO`, the TGI is 73.3 µM in the assay on T-47D breast; 4.2 µM in the assay on UACC-257 melanoma; 8.71 µM with BT-549 breast; more than 52 µM in the assay on SN12C renal; 34.2 µM in the assay on HCT-15 colon; 31.5 µM in the assay with KM12 colon. In addition, the TGI in the assay with SF-295 CNS amounted to 7.04 µM; in the assay with LOX IMVI melanoma, 9.52 µM.

Consider `C=C1C(=O)C2=CC1CCC(=O)C1(C)CCC(OC(C)=O)C(C)(C)C1CC2O` (centres undefined), for which the TGI with T-47D breast was 21.8 µM; in the assay on UACC-257 melanoma it was 17 µM; with BT-549 breast it was 9.33 µM; in the assay with SN12C renal it was 12.5 µM; in the assay with HCT-15 colon it was 2.6 µM; in the assay on KM12 colon, 15.9 µM. In addition, the TGI is 25.6 µM in the assay on SF-295 CNS and more than 22.5 µM in the assay on LOX IMVI melanoma.

Consider `CC(C)Cc1ccc(C(C)C(=O)NCc2ccc(Cn3c(=O)sn(CCCI)c3=O)cc2)cc1` (centres undefined), for which the GI50 in the assay with T-47D breast is 1.64 µM; with UACC-257 melanoma, 1.28 µM; with BT-549 breast, 0.571 µM; with SN12C renal, 0.646 µM; in the assay on HCT-15 colon, 0.237 µM; in the assay with KM12 colon, 1.56 µM. In addition, the GI50 with SF-295 CNS was 1.56 µM; in the assay on LOX IMVI melanoma, 0.181 µM. Also, the TGI in the assay on T-47D breast is 5.93 µM; in the assay on UACC-257 melanoma, 2.7 µM; in the assay on BT-549 breast it was 1.81 µM; with SN12C renal it was 1.97 µM; in the assay with HCT-15 colon, 0.738 µM; in the assay on KM12 colon, 3.25 µM. Moreover, the TGI came out at 3.08 µM with SF-295 CNS and 0.393 µM in the assay on LOX IMVI melanoma.

For the compound `COc1cc2c(c(OC)c1OC)-c1c(c3ccc([N+](=O)[O-])cc3c(=O)n1CCCN)C2=O`, the GI50 in the assay on T-47D breast was 1.88 µM; with UACC-257 melanoma, 8.22 µM; with BT-549 breast, 14.4 µM; in the assay on SN12C renal, 4 µM; in the assay with HCT-15 colon, 8.16 µM; in the assay on KM12 colon, 6.64 µM. Besides, the GI50 in the assay with SF-295 CNS is 1.86 µM; with LOX IMVI melanoma, 1.01 µM. Further, the TGI was found to be 7.85 µM with T-47D breast; 17 µM in the assay with UACC-257 melanoma; 46.9 µM in the assay with BT-549 breast; 11.5 µM in the assay on SN12C renal; 16.8 µM with HCT-15 colon; 18.1 µM in the assay on KM12 colon. Further, the results for the TGI in the assay with SF-295 CNS and with LOX IMVI melanoma were 7.82 µM and 2.06 µM, respectively.

Take `Cc1ccccc1C(C(=O)NC1CCCCC1)N(C(=O)CNc1ncccc1F)c1cccc(F)c1` (centres undefined): the GI50 is 60.8 µM in the assay on T-47D breast; more than 100 µM with UACC-257 melanoma; more than 58.4 µM in the assay with BT-549 breast; more than 79.9 µM in the assay on SN12C renal; more than 100 µM in the assay with HCT-15 colon; more than 100 µM in the assay on KM12 colon. Also, the values for the GI50 in the assay with SF-295 CNS and with LOX IMVI melanoma were 20.6 µM and more than 100 µM, respectively. For the same compound, the TGI with T-47D breast, in the assay with UACC-257 melanoma, with BT-549 breast, in the assay on SN12C renal, with HCT-15 colon and with KM12 colon was more than 100 µM each time. The TGI in the assay with SF-295 CNS is more than 76.8 µM; in the assay with LOX IMVI melanoma, more than 100 µM.

`Cc1sc2c(c1C)C(c1ccc(Cl)cc1)=N[C@@H](CC(=O)NCCCN1CCN(C)CC1)c1nnc(C)n1-2`: the GI50 is 0.287 µM with T-47D breast; 3.26 µM with UACC-257 melanoma; 3.51 µM with BT-549 breast; 7.36 µM in the assay on SN12C renal; 16.8 µM in the assay on HCT-15 colon; 19.6 µM in the assay on KM12 colon. For the same compound, the GI50 in the assay with SF-295 CNS is 8.12 µM; in the assay on LOX IMVI melanoma it was 0.362 µM. Further, the TGI in the assay on T-47D breast, in the assay on UACC-257 melanoma, with BT-549 breast, in the assay with SN12C renal, in the assay with HCT-15 colon and with KM12 colon was more than 100 µM throughout. The TGI with SF-295 CNS is more than 100 µM; in the assay with LOX IMVI melanoma, more than 69.9 µM.

`CN(C)Cc1c(C(=O)NCCOc2ccc(C(=O)NO)cc2)oc2ccccc12`: the GI50 in the assay with T-47D breast is 0.163 µM; with UACC-257 melanoma it was 0.0689 µM; with BT-549 breast it was 0.519 µM; with SN12C renal, 0.459 µM; in the assay with HCT-15 colon it was 1.9 µM; in the assay on KM12 colon, 0.312 µM. Also, the GI50 with SF-295 CNS is 0.225 µM; with LOX IMVI melanoma, 0.289 µM. Besides, the TGI in the assay with T-47D breast is 0.777 µM; in the assay with UACC-257 melanoma it was 0.592 µM; in the assay with BT-549 breast, 13.8 µM; in the assay on SN12C renal, more than 100 µM; with HCT-15 colon, more than 35.9 µM; in the assay with KM12 colon it was 2.34 µM. In addition, the figures for the TGI with SF-295 CNS and in the assay with LOX IMVI melanoma were 0.713 µM and 1.11 µM, respectively.

These data come from PubChem BioAssay (NCI).
